Series [1] can be described thus: Phase 1 pharmacokinetic study, single oral 25 mg dose of d6-tetrabenazine or tetrabenazine (immediate release, powder in capsule), two-period crossover. To be noted: for AUClast / Cmax / Tmax / AUCinf / t1/2: plasma analyte, single oral 25 mg d6-tetrabenazine or tetrabenazine; for AUClast / Cmax / Tmax / AUCinf / t1/2 / AUCinf (AUClast presented for parent drug as AUCinf not calculable): fasted, mean; for AUCinf (AUClast presented for parent drug as AUCinf not calculable): parent drug in plasma, single oral 25 mg; for Ratio of LS Means, AUCinf / Ratio of LS Means, AUClast / Ratio of LS Means, Cmax / Ratio of LS Means, t1/2: d6-tetrabenazine 25 mg (test) to tetrabenazine 25 mg (reference), ANOVA. The series is classed as in vivo, human. Here is the method:
A Phase 1 pharmacokinetic study was conducted in 24 healthy extensive and intermediate CYP2D6 metabolizer volunteers receiving oral 25 mg doses of d6-tetrabenazine or tetrabenazine to compare the relative bioavailability and pharmacokinetics of single oral doses of d6-tetrabenazine and its metabolites d6-α-HTBZ and d6-β-HTBZ with their non-deuterated equivalents (tetrabenazine, α-HTBZ and β-HTBZ) as well as the corresponding O-desmethyl metabolites of α-HTBZ and β-HTBZ. Subjects received a single oral dose of 25 mg of d6-tetrabenazine or tetrabenazine after an overnight fast, as a powder in capsule, in Period 1 and following washout of at least 7 days. Patients were crossed over to receive the other treatment in Period 2. In each period, plasma samples were collected over 72 hours post-dose.
Pharmacokinetic results are shown below in Table 37 and FIG. 3, results are presented as Mean (% CV) for Cmax, AUC and t1/2 (AUClast presented for parent drug as AUCinf not calculable), and as Mean (range) for Tmax. The increased exposure was principally attributable to increases in half-life and was associated with proportional reductions in O-desmethyl metabolites of HTBZ.
The effect of deuteration on key pharmacokinetic parameters was evaluated by comparing d6-tetrabenazine (test) to tetrabenazine (reference) using an analysis of variance (ANOVA) model for a two-period crossover including factors Sequence, Treatment, Period and Subject. Pharmacokinetic parameters were log-transformed before analysis.

Series [2] is classed as in vitro ADME. The text has this: d6-Tetrabenazine has been designed with the intent to improve the pharmacokinetic profile of active metabolites α-HTBZ and β-HTBZ. The CYP mediated cleavage of the carbon-deuterium bonds within the trideuterated methyl groups (CD3) of d6-tetrabenazine is slower than the cleavage of the carbon-hydrogen bonds in the methyl groups (CH3) of tetrabenazine, an effect that selectively attenuated O-demethylation of deuterated α-HTBZ and β-HTBZ (d6-α-HTBZ and d6-β-HTBZ) in in vitro studies.
The spectrum of metabolites produced by d6-tetrabenazine is expected to be similar to that in patients with reduced CYP2D6 metabolism who receive tetrabenazine. This is based on in vitro metabolism studies and a drug interaction study of tetrabenazine and paroxetine. In the drug interaction study, co-administration of tetrabenazine and paroxetine increased systemic exposure to the α-HTBZ and β-HTBZ metabolites by 3- to 9-fold, respectively, compared to tetrabenazine alone (Xenazine® U.S. prescribing information). […] Administration of d6-tetrabenazine to healthy volunteers led to an approximate 2-fold increase in systemic exposure to α-HTBZ and β-HTBZ and proportional reductions in O-desmethyl metabolites compared to tetrabenazine. […]

The conditions of series [3]: human plasma; cited from earlier work.
The conditions of series [4]: co-administration of tetrabenazine and paroxetine, compared to tetrabenazine alone; cited from earlier work.

The values below come from patent US11666566B2, “Formulations and pharmacokinetics of deuterated benzoquinoline inhibitors of vesicular monoamine transporter 2” (AUSPEX PHARMACEUTICALS, INC., priority 2012, dated 2023).

The term Cmax denotes the peak of the concentration-time curve. The Tmax is the time from dosing to the highest level.

Like-named read-outs stand apart in the source and are kept apart here.

On to `[2H]C([2H])([2H])Oc1cc2c(cc1O)C1CC(O)C(CC(C)C)CN1CC2` (stereo not drawn) [d3-10-ODM-β-HTBZ], for which, in series [1], the AUClast turned out to be 0.7 ng·h/mL, the Cmax stood at 0.59 ng/mL and the Tmax came out at 1.50 h.

Take `COc1cc2c(cc1O)CCN1C[C@@H](CC(C)C)[C@@H](O)C[C@H]21` [9-O-desmethyl-β-HTBZ]: in series [1], the AUCinf was found to be 220 ng·h/mL, the AUClast stood at 205 ng·h/mL, the Cmax worked out at 15.7 ng/mL and the Tmax was 1.75 h. In series [1], this molecule displayed a t1/2 of 16.2 h.

On to `COc1cc2c(cc1O)CCN1C[C@@H](CC(C)C)[C@H](O)C[C@H]21` [9-O-desmethyl-α-HTBZ], for which, in series [1], the AUCinf stood at 49.9 ng·h/mL, the AUClast was 42.5 ng·h/mL, the Cmax is on record as 5.05 ng/mL and the Tmax came to 2.00 h. Also, in series [1], the t1/2 was determined as 6.95 h.

Regarding `[2H]C([2H])([2H])Oc1cc2c(cc1O)CCN1C[C@@H](CC(C)C)[C@H](O)C[C@H]21` [d3-9-O-desmethyl-α-HTBZ], in series [1], the AUClast was 21.0 ng·h/mL, the Cmax is 2.15 ng/mL and the Tmax was 3.02 h.

`COc1cc2c(cc1OC)[C@@H]1CC(=O)[C@@H](CC(C)C)CN1CC2` (racemic) [Tetrabenazine, (3R,11bR)-1,3,4,6,7,11b-Hexahydro-9,10-dimethoxy-3-(2-methylpropyl)-2H-benzo[a]quinolizin-2-one, and (3S,11bS)-1,3,4,6,7,11b-hexahydro-9,10-dimethoxy-3-(2-methylpropyl)-2H-benzo[a]quinolizin-2-one, reference compound]: the Cmax in series [1] (human, read-out: Cmax) worked out at 0.314 ng/mL. For the same molecule, the “AUCinf (AUClast presented for parent drug as AUCinf not calculable)” value in series [1] was 0.26 ng·h/mL.

Take `[2H]C([2H])([2H])Oc1cc2c(cc1OC([2H])([2H])[2H])[C@H]1C[C@@H](O)[C@H](CC(C)C)CN1CC2` [d6-α-HTBZ, deuterated alpha-dihydrotetrabenazine]: the “less of the O-desmethyl metabolites produced” value in series [2] was 69-87%. Further, in series [1], the AUCinf was found to be 373 ng·h/mL, the Cmax is 46.1 ng/mL, the Tmax is 1.5 h and the t1/2 was 8.97 h.

`[2H]C([2H])([2H])Oc1cc2c(cc1O)CCN1C[C@@H](CC(C)C)[C@@H](O)C[C@H]21` [d3-9-O-desmethy1-β-HTBZ]: in series [1], the AUCinf is 114 ng·h/mL, the AUClast amounted to 92.4 ng·h/mL, the highest concentration (Cmax) came to 6.29 ng/mL and the Tmax turned out to be 1.75 h. In series [1], the t1/2 was 16.9 h.

Consider `COc1cc2c(cc1OC)[C@H]1C[C@H](O)[C@H](CC(C)C)CN1CC2` [β-HTBZ, beta-dihydrotetrabenazine], for which, in series [3], the half-lives was 5 h. Also, in series [1], the “Ratio of LS Means, AUCinf” value came out at 235.8%; the “Ratio of LS Means, AUClast” value turned out to be 240.1%; the “Ratio of LS Means, Cmax” value stood at 145.8%; the “Ratio of LS Means, t1/2” value was found to be 153.0%. For the same molecule, in series [1], the AUCinf is 74.0 ng·h/mL, the Cmax worked out at 20.5 ng/mL, the Tmax came out at 1.00 h and the t1/2 turned out to be 2.95 h. Further, in series [4], the “increase in systemic exposure” value is on record as 9 fold.

Consider alpha-dihydrotetrabenazine [α-HTBZ], for which the half-lives in series [3] was 7 h. Further, in series [1], the “Ratio of LS Means, AUCinf” value came out at 213.6%; the “Ratio of LS Means, AUClast” value was 214.8%; the “Ratio of LS Means, Cmax” value was determined as 113.7%; the “Ratio of LS Means, t1/2” value stood at 174.7%. For the same molecule, in series [1], the AUCinf was determined as 189 ng·h/mL, the Cmax was 41.2 ng/mL, the time to peak (Tmax) came out at 1.00 h and the t1/2 stood at 5.47 h. Moreover, the “increase in systemic exposure” value in series [4] is on record as 3 fold.

For the molecule `[2H]C([2H])([2H])Oc1cc2c(cc1OC([2H])([2H])[2H])[C@@H]1C[C@@H](O)[C@@H](CC(C)C)CN1CC2` [d6-β-HTBZ, deuterated beta-dihydrotetrabenazine], the “less of the O-desmethyl metabolites produced” value in series [2] was 69-87%. Further, in series [1], the AUCinf was found to be 171 ng·h/mL, the Cmax turned out to be 29.6 ng/mL, the Tmax was determined as 1.50 h and the t1/2 was found to be 5.00 h.

Regarding `[2H]C([2H])([2H])Oc1cc2c(cc1OC([2H])([2H])[2H])[C@@H]1CC(=O)[C@@H](CC(C)C)CN1CC2` (racemic) [d6-Tetrabenazine, (3R,11bR)-1,3,4,6,7,11b-hexahydro-9,10-di(methoxy-d3)-3-(2-methylpropyl)-2H-benzo[a]quinolizin-2-one and (3S,11bS)-1,3,4,6,7,11b-hexahydro-9,10-di(methoxy-d3)-3-(2-methylpropyl)-2H-benzo[a]quinolizin-2-one], the “systemic exposure to total (α+β)-HTBZ” value in series [1] (compared to exposure following tetrabenazine administration) was “more than doubling”. Further, the Cmax in series [1] (human, read-out: Cmax) is 0.327 ng/mL. In addition, the “AUCinf (AUClast presented for parent drug as AUCinf not calculable)” value in series [1] was 0.30 ng·h/mL.

As to `COc1cc2c(cc1O)C1CC(O)C(CC(C)C)CN1CC2` (stereo not drawn) [10-ODM-β-HTBZ], in series [1], the AUClast is 3.0 ng·h/mL, the Cmax is 1.63 ng/mL and the Tmax came out at 1.25 h.
